The subject of the assay is BDF1 mice, L1210/MTX-resistant leukemia ip, survival T/C. In words: NCI In Vivo Anticancer Drug Screen. Data for tumor model L1210 Leukemia resistant to Methotrexate; NSC 740 (intraperitoneal) in B6D2F1 (BDF1) mice. Particulars: endpoint: mean survival time, higher = longer survival. The method, then:
The antitumor activity of compounds was measured in mice bearing transplantable tumors. Survival or tumor size were measured and the results are expressed as the measurement made in the treated group (T) divided by the measurement made in the vehicle treated control group (C). The tumor model used in this assay is L1210 Leukemia resistant to Methotrexate; NSC 740 (intraperitoneal) in B6D2F1 (BDF1) mice

[1] abbreviates: dose: 12.5 mg/kg/injection, schedule: Q01DX010 (ip), vehicle: saline.
The mark [2] stands for this setting: dose: 12.5 mg/kg/injection, schedule: Q01DX Z (ip), vehicle: carboxymethylcellulose (CMC).
Setting [3] is: dose: 50.0 mg/kg/injection, schedule: Q01DX Z (ip), vehicle: carboxymethylcellulose (CMC).
The mark [4] stands for this setting: dose: 20.0 mg/kg/injection, schedule: Q01DX010 (ip), vehicle: saline.
[5] abbreviates: dose: 10.0 mg/kg/injection, schedule: Q01DX010 (ip), vehicle: saline.

Several values for one entry are separate records, joined by “and”; a condition that tells them apart may be missing. Equal entries are not always repeated. Inconclusive results and toxic doses are left out. Starred links: 1 amine or outer side, 2 acyl side, 3 side chain; linkers in the order of their positions; H or OH if unused. Positions of bridges follow the written chain, without caps; N, C: chain ends. Non-standard residues stand in square brackets, D forms with d. Residues, ends and D or L forms follow the SMILES beside them. Chains are numbered I, II in the order given. Actinocin(9to1) = Cc1c2oc3c(C)ccc(C(=O)[*:1])c3nc-2c(C(=O)[*:2])c(N)c1=O; aThr = C[C@H](O)[C@H](N)C(=O)O; NMeV = CN[C@H](C(=O)O)C(C)C; Sar = CNCC(=O)O

For the compound `CS(=O)(=O)OCCCCOS(C)(=O)=O`, the T/C is, setting by setting: (dose: 0.38 mg/kg/injection, schedule: Q01DX Z (ip), vehicle: methylcellulose (MC)) 88 % of control and 105 % of control; (dose: 0.75 mg/kg/injection, schedule: Q01DX Z (ip), vehicle: methylcellulose (MC)) 93 % of control and 97 % of control; (dose: 6.25 mg/kg/injection, schedule: Q01DX010 (ip), vehicle: saline) 97 % of control; under setting [1], 92 % of control and 93 % of control; under setting [2], 106 % of control; (dose: 25.0 mg/kg/injection, schedule: Q01DX010 (ip), vehicle: saline) 91 % of control. Moreover, the T/C (dose: 50.0 mg/kg/injection, schedule: Q01DX010 (ip), vehicle: saline) is 102 % of control.
On to `CC(CCC(C)OS(C)(=O)=O)OS(C)(=O)=O` (centres undefined), for which the T/C was 86 % of control (dose: 3.75 mg/kg/injection, schedule: Q01DX Z (ip), vehicle: carboxymethylcellulose (CMC)); 114 % of control (dose: 5.0 mg/kg/injection, schedule: Q01DX Z (ip), vehicle: carboxymethylcellulose (CMC)); 106 % of control (dose: 7.5 mg/kg/injection, schedule: Q01DX Z (ip), vehicle: carboxymethylcellulose (CMC)); 91 % of control (dose: 10.0 mg/kg/injection, schedule: Q01DX Z (ip), vehicle: carboxymethylcellulose (CMC)); 98 % of control under setting [2]; 88 % of control under setting [3]. Moreover, where the note is “dose: 75.0 mg/kg/injection, schedule: Q01DX Z (ip), vehicle: carboxymethylcellulose (CMC)”, the T/C was 98 % of control.
Take `OCC1OC(n2cnc3c(=S)nc[nH]c32)C(O)C1O` (centres undefined): the T/C runs as follows: under setting [4], 101 % of control and 102 % of control; (dose: 40.0 mg/kg/injection, schedule: Q01DX010 (ip), vehicle: saline) 91 % of control and 101 % of control; (dose: 80.0 mg/kg/injection, schedule: Q01DX010 (ip), vehicle: saline) 98 % of control; (dose: 160.0 mg/kg/injection, schedule: Q01DX010 (ip), vehicle: saline) 88 % of control and 93 % of control.
With `CSc1ncnc2c1ncn2C1OC(CO)C(O)C1O` (centres undefined), the T/C runs as follows: (dose: 0.5 mg/kg/injection, schedule: Q01DX Z (ip), vehicle: saline) 102 % of control; (dose: 1.0 mg/kg/injection, schedule: Q01DX Z (ip), vehicle: saline) 99 % of control; (dose: 2.0 mg/kg/injection, schedule: Q01DX Z (ip), vehicle: saline) 105 % of control; (dose: 4.0 mg/kg/injection, schedule: Q01DX Z (ip), vehicle: saline) 112 % of control; (dose: 6.25 mg/kg/injection, schedule: Q01DX Z (ip), vehicle: saline) 97 % of control; under setting [5], 107 % of control. In addition, the T/C reads like this: under setting [1], 109 % of control; (dose: 12.5 mg/kg/injection, schedule: Q01DX Z (ip), vehicle: saline) 93 % of control; (dose: 15.0 mg/kg/injection, schedule: Q01DX010 (ip), vehicle: saline) 106 % of control; under setting [4], 102 % of control.
On to `Cc1c2oc3c(C)ccc(C(=O)N[C@@H]4C(=O)N[C@H](C(C)C)C(=O)N5CCC[C@H]5C(=O)N(C)CC(=O)N(C)[C@@H](C(C)C)C(=O)O[C@H]4C)c3nc-2c(C(=O)N[C@@H]2C(=O)N[C@H](C(C)C)C(=O)N3CCC[C@H]3C(=O)N(C)CC(=O)N(C)[C@@H](C(C)C)C(=O)O[C@H]2C)c(N)c1=O` (I: [aThr][dV]P[Sar][NMeV] / II: [aThr][dV]P[Sar][NMeV]; ester I:1-I:C, II:1-II:C; linker I:N-II:N via Actinocin(9to1)), for which the T/C was 157 % of control (dose: 12.0 micrograms/kg/injection, schedule: Q01DX Z (ip), vehicle: saline); 103 % of control (dose: 12.5 micrograms/kg/injection, schedule: Q01DX Z (ip), vehicle: saline); 92 % of control and 104 % of control (dose: 32.0 micrograms/kg/injection, schedule: Q01DX Z (ip), vehicle: saline); 114 % of control and 117 % of control (dose: 50.0 micrograms/kg/injection, schedule: Q01DX Z (ip), vehicle: saline); 98 % of control and 104 % of control (dose: 63.0 micrograms/kg/injection, schedule: Q01DX Z (ip), vehicle: saline); 117 % of control and 101 % of control (dose: 125.0 micrograms/kg/injection, schedule: Q01DX Z (ip), vehicle: saline).
Turning to `CN(N=O)C(=O)NC(C=O)C(O)C(O)C(O)CO` (centres undefined), the T/C is, setting by setting: under setting [1], 100 % of control; (dose: 50.0 mg/kg/injection, schedule: Q01DX Z (ip), vehicle: saline) 106 % of control; (dose: 100.0 mg/kg/injection, schedule: Q01DX010 (ip), vehicle: saline) 100 % of control; (dose: 100.0 mg/kg/injection, schedule: Q01DX Z (ip), vehicle: saline) 97 % of control.
As for `CCCSc1ncnc2nc[nH]c12`, the T/C was 103 % of control (dose: 0.5 mg/kg/injection, schedule: Q01DX Z (ip), vehicle: other); 93 % of control (dose: 2.0 mg/kg/injection, schedule: Q01DX Z (ip), vehicle: other); 93 % of control (dose: 4.0 mg/kg/injection, schedule: Q01DX Z (ip), vehicle: other); 104 % of control (dose: 31.3 mg/kg/injection, schedule: Q01DX010 (ip), vehicle: saline); 95 % of control (dose: 62.5 mg/kg/injection, schedule: Q01DX010 (ip), vehicle: saline); 100 % of control (dose: 87.5 mg/kg/injection, schedule: Q01DX Z (ip), vehicle: other). Moreover, the T/C (dose: 125.0 mg/kg/injection, schedule: Q01DX010 (ip), vehicle: saline) is 90 % of control; the T/C (dose: 175.0 mg/kg/injection, schedule: Q01DX Z (ip), vehicle: other) was 88 % of control; the T/C (dose: 250.0 mg/kg/injection, schedule: Q01DX010 (ip), vehicle: saline) was 88 % of control.
As for `Nc1nc(SCc2ccccc2)c2[nH]cnc2n1`, the T/C is 121 % of control (dose: 6.25 mg/kg/injection, schedule: Q01DX Z (ip), vehicle: carboxymethylcellulose (CMC)); 105 % of control (dose: 8.0 mg/kg/injection, schedule: Q01DX010 (ip), vehicle: saline); 114 % of control under setting [2]; 120 % of control (dose: 16.0 mg/kg/injection, schedule: Q01DX010 (ip), vehicle: saline); 107 % of control (dose: 25.0 mg/kg/injection, schedule: Q01DX Z (ip), vehicle: carboxymethylcellulose (CMC)); 105 % of control under setting [3]. Moreover, the T/C reads like this: (dose: 62.5 mg/kg/injection, schedule: Q01DX Z (ip), vehicle: carboxymethylcellulose (CMC)) 95 % of control; (dose: 64.0 mg/kg/injection, schedule: Q01DX010 (ip), vehicle: saline) 96 % of control.
`CN(C)c1ccc(/C=C/c2ccnc3ccccc23)cc1`: the T/C (dose: 2.5 mg/kg/injection, schedule: Q01DX Z (ip), vehicle: saline) was 121 % of control; the T/C (dose: 5.0 mg/kg/injection, schedule: Q01DX010 (ip), vehicle: saline) was 104 % of control; the T/C (dose: 5.0 mg/kg/injection, schedule: Q01DX Z (ip), vehicle: saline) was 101 % of control; the T/C under setting [5] was 95 % of control.

The values are drawn from PubChem BioAssay AID284 (DTP/NCI, 2004).
